# Values of other authors, collected in PMC10925453, “Selective Bias Virtual Screening for Discovery of Promising Antimalarial Candidates targeting Plasmodium N-Myristoyltransferase” (Research Square, 2024).
# Experiments:
# [1] = tested on: human isoform 1; details: no reference given
# [2] = tested on: Plasmodium NMT; design: method as in earlier work; details: ligand of the PDB structure, activity against Plasmodium NMT; ref PDB
IC50 [1] [nM],Structure (SMILES),Ki [2] [nM]
60 ± 3,"Cc1nn(C)c(C)c1Cc1nnc(-c2sc3ccccc3c2OC2CCNCC2)o1 [2YNE, 2-(3-piperidin-4-yloxy-1-benzothiophen-2-yl)-5-[(1,3,5-trimethylpyrazol-4-yl)methyl]-1,3,4-oxadiazole]",2.7
,Cc1nn(C)c(C)c1NS(=O)(=O)c1c(Cl)cc(-c2ccnc(N3CCNCC3)c2)cc1Cl [2YND],32
